Measurements reported in patent publication US20240277813A1, “TREATMENT OF OBESITY AND OBESITY-RELATED DISORDERS” (ANTAG THERAPEUTICS APS, priority 2021, published 2024).
“Also recorded” adds a separate entry of the source. *1 amine or outer side, *2 acyl side, *3 side chain or, on linkers, in order; H or OH if unused. Where a SMILES comes first, the peptide text is derived from it. Where no end group is shown, it is not given here. Side-chain parts run from the residue outwards. [ ]: non-standard residue; d: D form. The star is where a group is joined. C18 diacid = O=C(O)CCCCCCCCCCCCCCCCC(=O)*; C16 diacid = O=C(O)CCCCCCCCCCCCCCC(=O)*; γGlu = O=C(O)[C@H](CCC(=O)[*:2])N[*:1]; Glutaryl = O=C(CCCC(=O)[*:2])[*:1]; Nle = CCCC[C@H](N)C(=O)O; AEEA = NCCOCCOCC(=O)O; Aib = CC(C)(N)C(=O)O

Experiments:
[1] = in vivo
Description: During the treatment period all monkeys received daily SC injections after breakfast with the respective test substance for a total of 42 days. […] All treatment groups and the vehicle group received injection volumes based on individual body weights. After the 42 days of treatment, body weight, food intake, and blood/serum chemistries were monitored for an additional 14-day washout period. Blood collections and dosing occurred in conscious monkeys for the entire study.

[2] = system: high-fat mice; conditions: daily intraperitoneal injections, cited from earlier work; for glucose tolerance / glycaemic control: compared with high-fat controls
[3] = system: High fat diet (HFD) induced obese cynomolgus monkeys; assay: cynomolgus monkey efficacy study, 42 days daily SC treatment; format: in vivo, cynomolgus monkeys (Macaca fascicularis)
Description: Cynomolgus monkeys (Macaca fascicularis) were fed a HFD consisting of 50 g of KBI proprietary standard monkey formula feed in the morning 9:00 to 10:00 AM, 150 g apple in the afternoon 14:00 to 15:00 PM, and 100 g of KBI proprietary HFD in the evening 16:00 to 17:00 PM. Water was provided ad libitum. […] Values represent means±SEM, n=9-10 per group.
High fat diet (HFD) induced obese cynomolgus monkeys (Macaca fascicularis, male, >7.5 kg, fasting glucose<90 mg/dL, fasting insulin<60 μU/mL, >8 years of age) were obtained from KBI's stock colony. Lighting in animal holding rooms was maintained on 12:12 hour light:dark cycle, and the ambient temperature and humidity range was set at 18-29 degrees C. and 30 to 90%, respectively. The monkeys were individually housed in cages arranged to allow visual and auditory contacts with conspecifics. The monkeys were provided with cage toys for environmental enrichment to ensure adequate welfare and psychological well-being.
8 days prior to the treatment phase, and KBI's proprietary HFD was provided adlibitum which is in contrast to the defined amount of 100 g that the monkeys were normally served. During the entire treatment phase (42 days) and washout period (14 days) monkeys were provided three meals per day consisting of 50 g of KBI proprietary standard monkey formula feed in the morning 9:00-10:00 AM, one regular apple (150 g) in the afternoon 14:00-15:00 PM, and ad libitum of KBI proprietary HFD in the evening 16:00-17:00 PM. Water was provided adlibitum.
The cynomolgus monkeys were acclimated/trained to experimental procedures for three weeks followed by one week with continued training and introduction of adlibitum HFD prior to start of treatment. The monkeys were randomly sorted into six separate dose groups with 10 animals each based on acclimation data sets.
Daily food intake measurements were recorded during the entire duration of the study from the acclimation period until the end of the washout period. After each feeding time, all of the remaining food was withdrawn and intake was determined by weighing the left-over food.
Body weights were measured every third to fourth day during the study period. The monkeys were non-sedated and were transferred into small transfer cages and transported to a weighing scale. The tare weights of the transfer cages were determined prior to weighing the monkeys inside the transfer cages. The monkeys were weighed twice inside the transfer cages and recordings were made to the nearest 0.1 kg.
Whole blood sample was collected from a peripheral vein after an overnight fast according to the specified time points and transferred directly into serum separation tubes (SST). Serum was separated by centrifugation at 2500×g for 10 min at 4° C. Insulin, CTX and PTH levels were analyzed using the Cobas e411 Immunology analyzer. Other parameters were analyzed using the Roche C311 or C501 biochemical analyzer.

[4] = molecular target: DPP-IV enzyme (Homo sapiens, UniProt P27487); conditions: cited from earlier work
DPP-IV enzyme, sequence (P27487 whole entry, species assumed): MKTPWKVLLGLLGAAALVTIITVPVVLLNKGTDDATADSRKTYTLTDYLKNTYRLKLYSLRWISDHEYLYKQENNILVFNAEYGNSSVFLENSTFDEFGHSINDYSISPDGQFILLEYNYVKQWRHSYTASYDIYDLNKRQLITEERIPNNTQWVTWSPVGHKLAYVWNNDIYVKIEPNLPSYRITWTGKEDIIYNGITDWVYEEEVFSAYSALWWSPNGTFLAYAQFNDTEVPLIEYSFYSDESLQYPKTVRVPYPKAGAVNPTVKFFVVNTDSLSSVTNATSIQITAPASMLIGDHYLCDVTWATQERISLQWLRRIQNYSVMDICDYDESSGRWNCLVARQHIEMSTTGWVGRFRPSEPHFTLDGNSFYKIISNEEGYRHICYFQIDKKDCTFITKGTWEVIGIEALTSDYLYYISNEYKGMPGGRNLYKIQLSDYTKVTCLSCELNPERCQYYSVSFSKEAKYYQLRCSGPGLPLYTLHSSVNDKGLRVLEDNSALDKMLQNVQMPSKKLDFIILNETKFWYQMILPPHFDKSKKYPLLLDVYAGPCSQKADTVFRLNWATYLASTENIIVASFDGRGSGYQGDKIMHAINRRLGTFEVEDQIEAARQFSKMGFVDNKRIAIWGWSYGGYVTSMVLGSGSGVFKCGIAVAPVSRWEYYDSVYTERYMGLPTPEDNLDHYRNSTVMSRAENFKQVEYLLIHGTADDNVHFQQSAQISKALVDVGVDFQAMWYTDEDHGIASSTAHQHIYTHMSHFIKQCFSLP

[5] = system: mice on a fat-diet, or lean mice; conditions: cited from earlier work; for absolute body weight or cumulative food intake: chronic administration, compared with vehicle control

For `CCCC[C@H](NC(=O)C(C)(C)NC(=O)[C@@H](NC(=O)[C@H](CO)NC(=O)[C@H](Cc1ccc(O)cc1)NC(=O)[C@H](CCC(=O)O)NC(=O)[C@H](CO)NC(=O)[C@@H](NC(=O)[C@H](Cc1ccccc1)NC(=O)[C@@H](NC(=O)CNC(=O)CCCC(=O)O)[C@@H](C)O)[C@@H](C)CC)[C@@H](C)CC)C(=O)N[C@@H](CCC(=O)O)C(=O)N[C@@H](CCCCN)C(=O)N[C@H](C(=O)N[C@@H](CCCCNC(=O)COCCOCCNC(=O)COCCOCCNC(=O)CC[C@H](NC(=O)CCCCCCCCCCCCCCCCC(=O)O)C(=O)O)C(=O)N[C@@H](CCC(N)=O)C(=O)N[C@@H](CCC(N)=O)C(=O)N[C@@H](CCC(=O)O)C(=O)N[C@@H](Cc1ccccc1)C(=O)N[C@H](C(=O)N[C@@H](CCC(=O)O)C(=O)N[C@@H](Cc1c[nH]c2ccccc12)C(=O)N[C@@H](CC(C)C)C(=O)N[C@@H](CC(C)C)C(=O)N[C@@H](C)C(=O)N[C@@H](CCC(N)=O)C(=O)N[C@@H](CCCCN)C(=O)N1CCC[C@H]1C(=O)N[C@@H](CO)C(=O)N[C@@H](CO)C(=O)NCC(=O)N[C@@H](C)C(=O)N1CCC[C@H]1C(=O)N1CCC[C@H]1C(=O)N1CCC[C@H]1C(=O)N[C@@H](CO)C(=O)O)C(C)C)[C@@H](C)CC` [Compound 2] (Glutaryl-GTFISEYSI[Aib][Nle]EKIK([AEEA-AEEA-γGlu-C18 diacid])QQEFVEWLLAQKPSSGAPPPS-OH), the “half life (in words)” value [1] was “long half live”.
For (Pro3)GIP, the glucose tolerance [2] is given as “significantly improved glucose tolerance”, the glycaemic control [2] is given as “restored glycaemic control to normal levels” and the “food intake and body weights” value [2] is given as “not affected”.
In the case of (d-Ala8)GLP-1, the glucose tolerance [2] is listed as “significantly improved glucose tolerance”, the glycaemic control [2] is listed as “restored glycaemic control to normal levels” and the “food intake and body weights” value [2] is listed as “not affected”.
With “EGTFISEYSIAibLEKIKQQEFVEWLLAQKPSSGAPPPS-C16-diacid/18K (GIP(3-30)+Cex(31-39) [D9E;A13Aib;M14L;D15E;H18K;D21E;N24E]) (EGTFISEYSI[Aib]LEKIK(C16 diacid)QQEFVEWLLAQKPSSGAPPPS; ends and bridges not checked) [Compound 1]” the “body weight during the study period (in words)” value ([3]; 42 days treatment, placebo gained 9%) was “maintained body weight; also recorded: no change in weight”, the “fasting triglycerides (in words)” value ([3]; FIG. 1D) was “reduced fasting triglycerides” and the “average HOMA-IR (Homeostatic Model Assessment for Insulin Resistance)” value ([3]; at day 43, FIG. 1C, placebo 25.1) was 13.0. The “reduction in LDL-c (individual %-change from predose)” value ([3]; from predose) was 26%.
In the case of “GLP-1: 31-amino acid peptide derived from the proglucagon gene, secreted by intestinal L-cells”, the half-life [4] is listed as “approximately 2 minutes”.
For “NaAc-K10[γEγE-C16]-Arg18-hGIP(5-42) [GIPA-2]”, the “absolute body weight or cumulative food intake” value [5] is given as “no effect”, the “GIPR antagonist potency in mice (comparison)” value ([5]; in mice) is given as “more potent antagonist than GIPA-1” and the “glucose stimulated insulin secretion” value ([5]; in mice) is given as “inhibited glucose stimulated insulin secretion”.
For “mouse GIP(3-30)NH2 (EGTFISDYSIAMDKIRQQDFVNWLLAQR-NH2; UniProt P48756 46-73, looked up, fragment) [GIPA-1, GIPR antagonist GIP peptide of West et al. 2021]”, the “absolute body weight or cumulative food intake” value [5] is listed as “no effect”.
